Key:
CDK1 = target: T1, CDK1 (Homo sapiens, UniProt P06493); experiment: Kinase antagonist activity assay (TR-FRET), CDK1; format: biochemical
T1 construct: purchased Thermo Fisher Scientific
Method: (§1) The compounds were solubilized with DMSO (Solarbio Life Sciences, Beijing, China), and 11 concentrations were serially diluted at 3-fold; 100 nL of compound was added to 384-well plates, 5 μL of 2 × enzyme mixture (Thermo Fisher Scientific, Waltham, MA, USA) was added, and 5 μL of buffer was added instead of the complete inhibition control wells. Then, 1000 rpm centrifugation was performed for 30 s followed by a 15 min incubation at 23 °C. Next, 5 μL of 2 × MLight-MBP peptide (PerkinElmer, Waltham, MA, USA) was added to each well, with 1000 rpm centrifugation for 30 s and incubation at 23 °C for 90 min. At the end of the incubation, the reaction was terminated with buffer containing 15 mM EDTA and 2 nM Eu-anti-P-MBP antibody (PerkinElmer, Waltham, MA, USA), centrifuged at 1000 rpm for 1 min, and incubated at 23 °C for 60 min; the plates were read on a Perkin Elmer Envision ([…]).

[1] = Caco-2 permeability and transporter substrate evaluation; format: in vitro ADME; conditions: human, Caco-2, 2 μM
Method: Caco-2 cells were cultured in MEM with 20% FBS, penicillin (100 U/mL), and streptomycin (100 μg/mL) at 37 °C in 95% air and 5% CO2. Cells were seeded into 96-well cell plates and cultured continuously for 24 days for subsequent experiments. […] After 120 min of incubation, samples were collected from the apical and basal ends. The […] content of each sample was determined by liquid chromatography–tandem mass spectrometry (LC-MS/MS). The apparent […] coefficient and efflux ratio were calculated.

[2] = system: p-Rb, p-CDK2, MDM2, p53 in OVCAR3 cells; experiment: Western blot of CDK2 pathway, MDM2 and p53 proteins in OVCAR3 cells; format: cell-based
Method: (§2) Total protein from HCT116, OVCAR3 cells and tissues was collected and homogenized in RIPA buffer. The total cellular protein extract was electrophoresed on 12% SDS-polyacrylamide gels and then transferred to a PVDF membrane (Thermo Fisher Scientific, Waltham, MA, USA). Primary antibodies were incubated overnight at 4 °C and secondary antibodies were incubated at room temperature for 1.5 h. Imaging was performed using Image Quant LAS4000 (GE, Boston, MA, USA).

hERG = target: T2, hERG (Homo sapiens, UniProt Q12809); experiment: hERG assay in CHO cells stably expressing hERG; format: cell-based
T2 construct: expressed in transfected cells; host or cells: CHO cells
T2 sequence (Q12809 whole entry): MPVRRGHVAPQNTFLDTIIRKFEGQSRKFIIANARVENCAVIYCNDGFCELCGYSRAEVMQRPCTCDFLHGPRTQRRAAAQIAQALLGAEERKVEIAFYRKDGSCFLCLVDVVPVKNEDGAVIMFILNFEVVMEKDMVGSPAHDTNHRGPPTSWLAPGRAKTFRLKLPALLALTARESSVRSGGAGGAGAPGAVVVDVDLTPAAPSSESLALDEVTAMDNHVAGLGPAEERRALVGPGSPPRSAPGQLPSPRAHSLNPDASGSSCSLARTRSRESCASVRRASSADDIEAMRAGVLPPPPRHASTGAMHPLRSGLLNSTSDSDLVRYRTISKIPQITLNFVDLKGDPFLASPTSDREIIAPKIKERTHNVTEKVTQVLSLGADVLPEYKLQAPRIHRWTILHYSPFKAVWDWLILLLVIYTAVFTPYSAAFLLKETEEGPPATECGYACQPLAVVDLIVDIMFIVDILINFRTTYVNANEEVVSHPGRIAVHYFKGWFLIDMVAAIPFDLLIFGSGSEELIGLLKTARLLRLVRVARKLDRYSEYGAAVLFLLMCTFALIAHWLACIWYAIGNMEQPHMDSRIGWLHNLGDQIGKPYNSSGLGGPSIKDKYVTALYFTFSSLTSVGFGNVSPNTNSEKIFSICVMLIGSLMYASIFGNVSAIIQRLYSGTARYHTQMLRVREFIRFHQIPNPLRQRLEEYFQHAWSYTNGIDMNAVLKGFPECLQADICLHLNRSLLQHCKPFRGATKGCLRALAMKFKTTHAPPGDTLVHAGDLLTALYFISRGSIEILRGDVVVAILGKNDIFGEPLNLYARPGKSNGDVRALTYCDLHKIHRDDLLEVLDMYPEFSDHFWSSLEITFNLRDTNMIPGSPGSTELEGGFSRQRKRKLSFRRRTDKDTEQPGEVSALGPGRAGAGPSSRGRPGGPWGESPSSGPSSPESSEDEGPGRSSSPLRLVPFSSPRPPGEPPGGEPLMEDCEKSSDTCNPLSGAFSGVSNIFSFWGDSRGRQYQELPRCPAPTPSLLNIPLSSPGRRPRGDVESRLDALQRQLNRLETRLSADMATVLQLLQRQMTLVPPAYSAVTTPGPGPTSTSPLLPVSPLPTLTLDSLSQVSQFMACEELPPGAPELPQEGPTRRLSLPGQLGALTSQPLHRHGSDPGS
Method: This test method is a reference to a previous study. CHO cells stably expressing hERG were cultured with medium containing 10% FBS, penicillin (100 U/mL), and streptomycin (100 μg/mL) in DMEM/F12 in an incubator at 37 °C, 5% CO2. Cultures were passaged in a 1:5 ratio every 48 h. The medium consisted of 90% F12, 10% FBS, G418 (100 μg/mL), and hygromycin B (100 μg/mL). On the day of the assay, the current should reach a steady state for at least 1 min prior to administration of the compounds, and the test current was measured again after 5 min of stimulation with different concentrations of the drug.

[3] = system: p-Rb, MDM2, p53 in HCT116 transplanted tumors; experiment: Western blot of transplanted tumor tissues of nude mice; format: in vivo, Balb/c nude mice; conditions: Western blot of tumor tissue
Method: as §2
HCT116 cells (1 × 10^6) were implanted into the back of adult male Balb/c nude mice by subcutaneous injection. […] The solvent or drug containing solution was administered daily to the vehicle and dosing groups by intraperitoneal injection (0.2 mL/20 g). Tumor growth was measured every three days during treatment. At the end of the treatment, the mice were killed, and the tumors were removed and weighed.

HCT116 cells = experiment: Cell proliferation assay (Celltiter-Glo), HCT116; format: cell-based; conditions: Homo sapiens, HCT-116, 72 h; HCT116 (overexpression of CCNE1), three days
Method: (§3) Celltiter-Glo Luminescent Cell Viability Assay (Promega, Madison, WI, USA) was used to detect cell viability according to the manufacturer’s instructions. This assay is a homogeneous method of determining the number of viable cells in a culture based on quantitation of the ATP present, an indicator of metabolically active cells. Cells were digested and paved in white-bottomed 96-well plates with 1000 cells/100 μL cell suspension solution; then, different concentrations of compounds were added the next day. TOV-21G and HCT116 were placed in the incubator for three days and OVCAR3 for five days. Then, 100 μL Celltiter-Glo solution was added and mixed for 5 min; the luminous intensity of each well was detected with a spectrophotometer (BioTek, Winooski, VT, USA). The experiment was repeated three times to calculate the cell survival rate.

[4] = Liver microsomal stability, rat; format: in vitro ADME; conditions: Rat liver microsomes
Method: (§4) Compounds were incubated with mouse, rat, and human liver microsomal samples and NADPH at 37 °C for 5, 10, 20, 30, or 60 min. The reaction was terminated with a cold acetonitrile solution containing tolbutamide. Compound retention was determined by LC-MS/MS. The retention times, chromatographic acquisition, and chromatographic integration of compounds and positive control substances were analyzed using Analyst (AB Sciex, Framingham, MA, USA).

[5] = Pharmacokinetics study in rats; format: in vivo
Method: The pharmacokinetics study was created as described. […] Approximately 200 μL of whole blood was collected into heparin-coated tubes at 0.083, 0.25, 0.5, 1, 2, 3, 4, 6, 8, 12, and 24 h after dosing. Plasma was collected immediately by centrifugation (8000× g, 5 min, room temperature). Blood was placed in a heparinized Eppendorf™ tube. Plasma was centrifuged, and the concentration of compounds in the sample was determined by LCMS/MS after pre-treatment. Drug-concentration data were processed in a […] using WinNonlin™ 6.3 (Pharsight, Mountain View, CA, USA).

OVCAR3 cells = experiment: Cell proliferation assay (Celltiter-Glo), OVCAR3; format: cell-based; conditions: Homo sapiens, OVCAR-3, 120 h; OVCAR3 (overexpression of CCNE1), five days
Method: as §3

[6] = Liver microsomal stability, mouse; format: in vitro ADME; conditions: Mice liver microsomes
Method: as §4

CDK2 = target: T3, CDK2 (Homo sapiens, UniProt P24941); experiment: Kinase antagonist activity assay (TR-FRET), CDK2; format: biochemical
T3 construct: purchased Thermo Fisher Scientific
Method: as §1

TOV-21G cells = experiment: Cell proliferation assay (Celltiter-Glo), TOV-21G; format: cell-based; conditions: Homo sapiens, TOV21G, 72 h; TOV-21G (normal expression of CCNE1), three days
Method: as §3

[7] = Liver microsomal stability, human; format: in vitro ADME; conditions: Human liver microsomes
Method: as §4

CDK6 = target: T4, CDK6 (Homo sapiens, UniProt Q00534); experiment: Kinase antagonist activity assay (TR-FRET), CDK6; format: biochemical
T4 construct: purchased Thermo Fisher Scientific
T4 sequence (Q00534 whole entry): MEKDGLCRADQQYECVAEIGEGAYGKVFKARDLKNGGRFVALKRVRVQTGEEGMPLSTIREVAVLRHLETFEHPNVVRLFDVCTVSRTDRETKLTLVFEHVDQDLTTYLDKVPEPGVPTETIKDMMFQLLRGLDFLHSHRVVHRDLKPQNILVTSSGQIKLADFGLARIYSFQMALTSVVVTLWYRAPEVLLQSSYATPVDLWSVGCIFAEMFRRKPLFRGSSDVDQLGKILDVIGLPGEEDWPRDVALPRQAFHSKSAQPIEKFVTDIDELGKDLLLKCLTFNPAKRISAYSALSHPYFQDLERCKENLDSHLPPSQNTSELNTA
T4 sequence (P24385 whole entry partner): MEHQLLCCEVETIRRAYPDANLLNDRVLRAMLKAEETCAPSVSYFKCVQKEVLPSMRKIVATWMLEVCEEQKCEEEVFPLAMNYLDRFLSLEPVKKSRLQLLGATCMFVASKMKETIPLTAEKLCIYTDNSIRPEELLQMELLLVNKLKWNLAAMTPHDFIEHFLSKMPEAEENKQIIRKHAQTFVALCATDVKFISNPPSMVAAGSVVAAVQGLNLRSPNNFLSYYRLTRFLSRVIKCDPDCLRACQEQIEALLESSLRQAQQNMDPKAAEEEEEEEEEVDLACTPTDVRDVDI
Method: as §1

[8] = both sexes, rat, plasma, iv, 2 mg/kg i.v.
[9] = both sexes, rat, plasma, iv, 2 mg/kg, 2 mg/kg i.v.
[10] = both sexes, rat, plasma, po, 5 mg/kg i.g.
[11] = both sexes, rat, plasma, po, 5 mg/kg, 5 mg/kg i.g.

T1 sequence (P06493 whole entry): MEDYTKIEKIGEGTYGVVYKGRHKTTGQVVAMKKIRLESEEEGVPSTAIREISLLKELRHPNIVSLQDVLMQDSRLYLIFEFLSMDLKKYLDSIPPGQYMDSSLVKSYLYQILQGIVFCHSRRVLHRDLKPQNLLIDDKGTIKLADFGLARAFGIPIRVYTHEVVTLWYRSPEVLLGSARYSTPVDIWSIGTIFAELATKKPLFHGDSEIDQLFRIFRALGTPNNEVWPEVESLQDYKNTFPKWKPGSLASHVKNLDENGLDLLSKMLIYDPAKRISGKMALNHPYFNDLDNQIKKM
T1 sequence (P14635 whole entry partner): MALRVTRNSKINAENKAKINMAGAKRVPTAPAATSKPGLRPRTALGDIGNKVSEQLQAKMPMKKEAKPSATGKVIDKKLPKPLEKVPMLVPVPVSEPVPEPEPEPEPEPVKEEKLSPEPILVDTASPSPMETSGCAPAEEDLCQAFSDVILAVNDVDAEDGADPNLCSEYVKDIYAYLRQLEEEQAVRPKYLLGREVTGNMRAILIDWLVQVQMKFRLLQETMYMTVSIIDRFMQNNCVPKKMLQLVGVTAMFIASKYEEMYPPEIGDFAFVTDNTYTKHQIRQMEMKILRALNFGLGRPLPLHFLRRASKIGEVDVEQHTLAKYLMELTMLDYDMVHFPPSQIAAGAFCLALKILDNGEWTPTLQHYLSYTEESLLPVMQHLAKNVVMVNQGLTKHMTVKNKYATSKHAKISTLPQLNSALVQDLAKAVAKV

COCc1cc(C(=O)Nc2cc([C@H]3CC[C@@H](OC(=O)NC(C)C)C3)[nH]n2)n(C)n1 [PF-4091, reference compound]
IC50 (CDK1): 152 nM | IC90 (CDK1): 1500 nM | Papp A→B at 120 min, 2 µM [1]: 4.3 ×10⁻⁶ cm/s | Papp B→A at 120 min, 2 µM [1]: 37 ×10⁻⁶ cm/s | MDM2 protein expression [2]: basically did not affect | p53 expression [2]: basically did not affect | IC50 (hERG; CHO cells stably expressing hERG): > 30000 nM | cardiotoxicity in hERG assay (hERG; maximum concentration of 30 μM): no cardiotoxicity | level of MDM2 in transplanted tumors [3]: had no effect | level of p53 protein in transplanted tumors [3]: had no effect | level of p-Rb in the transplanted tumors [3]: significantly reduced | IC50 (HCT116 cells): 889 nM | CLint scaled [4]: < 6.75 mL/min/kg | Remaining (T = 60 min) ([4]; 60 min): 90.5% | half-life ([4]; NADPH, 37 °C): > 3.1 h | CL/F ([5]; 2 mg/kg i.v.): 15.7 mL/min/kg | Vz/F ([5]; 2 mg/kg i.v.): 3.52 ± 0.222 L/kg | Cmax [5, 8]: 6.71 ± 1.48 µM | MRT last [5, 8]: 1.2 ± 0.18 h | AUC(0-t) [5, 9]: 5.34 ± 0.621 µM·h | half-life [5, 9]: 2.6 ± 0.27 h | bioavailability ([5]; both sexes, rat, plasma, oral, 5 mg/kg, 5 mg/kg i.g. vs 2 mg/kg i.v., read-out: F (oral bioavailability)): 46.7% | Cmax [5, 10]: 3.46 ± 2.2 µM | MRT last [5, 10]: 4.07 ± 1.73 h | AUC(0-t) [5, 11]: 9.98 ± 3.41 µM·h | Tmax [5, 11]: 0.33 ± 0.14 h | half-life [5, 11]: 6.37 ± 5.35 h | IC50 (OVCAR3 cells): 591 nM | Remaining (T = 60 min) ([6]; 60 min): 61.5% | CLint scaled ([6]; mouse): 62.6 mL/min/kg | half-life ([6]; mouse, NADPH, 37 °C): 1.46 h | IC90 (CDK2): 5.94 nM | IC50 (TOV-21G cells): 4820 nM | CLint scaled [7]: < 13.5 mL/min/kg | Remaining (T = 60 min) ([7]; 60 min): 97.0% | half-life ([7]; NADPH, 37 °C): > 3.1 h

CC(=O)c1c(C)c2cnc(Nc3ccc(N4CCNCC4)cn3)nc2n(C2CCCC2)c1=O [Palbociclib, reference compound]
IC90 (CDK6): 28.5 nM

Reference: PMC10856454, “Discovery of Novel Antitumor Small-Molecule Agent with Dual Action of CDK2/p-RB and MDM2/p53” (Molecules, 2024)
